{
  "source": "paper PMC5218480",
  "about": "(PLoS ONE, 2017)",
  "system": "MV-4-11 cells",
  "assay": "Gene expression microarray analysis (Affymetrix PrimeView) and GSEA",
  "assay_type": "cell-based, human",
  "set-up": "RFU PODN (11730768_x_at) / Fold change /veh PODN (11730768_x_at) / RFU LINC00158 (11744669_a_at) / Fold change /veh LINC00158 (11744669_a_at) / RFU DUSP10 (11751237_a_at) / Fold change /veh DUSP10 (11751237_a_at) / RFU ID3 (11757404_x_at) / Fold change /veh ID3 (11757404_x_at) / RFU PLEKHG5 (11737974_s_at) / Fold change /veh PLEKHG5 (11737974_s_at) / RFU LRRC4B (11730491_at) / Fold change /veh LRRC4B (11730491_at) / RFU GIMAP4 (11747438_a_at) / Fold change /veh GIMAP4 (11747438_a_at) / RFU KRT8 (11758183_x_at) / Fold change /veh KRT8 (11758183_x_at) / RFU CNN1 (11734310_a_at) / Fold change /veh CNN1 (11734310_a_at) / RFU VPS37D (11726825_at) / Fold change /veh VPS37D (11726825_at) / RFU C10orf10 (11716522_x_at) / Fold change /veh C10orf10 (11716522_x_at) / RFU KIR2DL2 /// KIR2DL4 /// KIR2DL5A /// KIR2DL5B /// KIR2DS1 /// KIR2DS2 /// KIR2DS3 /// KIR2DS4 /// KIR3DL3 /// KIR3DL3 /// KIR3DS1 (11738374_at) / Fold change /veh KIR2DL2 /// KIR2DL4 /// KIR2DL5A /// KIR2DL5B /// KIR2DS1 /// KIR2DS2 /// KIR2DS3 /// KIR2DS4 /// KIR3DL3 /// KIR3DL3 /// KIR3DS1 (11738374_at) / RFU C1QL1 (11718748_at) / Fold change /veh C1QL1 (11718748_at) / RFU TMPRSS4 (11747572_a_at) / Fold change /veh TMPRSS4 (11747572_a_at) / RFU HAMP (11756126_x_at) / Fold change /veh HAMP (11756126_x_at) / RFU RNFT2 (11725882_a_at) / Fold change /veh RNFT2 (11725882_a_at) / RFU NR4A2 (11747474_a_at) / Fold change /veh NR4A2 (11747474_a_at) / RFU ABCC12 (11746883_a_at) / Fold change /veh ABCC12 (11746883_a_at) / RFU TMEM136 (11760407_x_at) / Fold change /veh TMEM136 (11760407_x_at) / RFU CLDN22 /// WWC2 (11732394_at) / Fold change /veh CLDN22 /// WWC2 (11732394_at) / RFU HLA-DPB1 (11760878_x_at) / Fold change /veh HLA-DPB1 (11760878_x_at) / RFU SPINT1 (11716480_a_at) / Fold change /veh SPINT1 (11716480_a_at) / RFU GAP43 (11754022_s_at) / Fold change /veh GAP43 (11754022_s_at) / RFU A4GNT (11735810_at) / Fold change /veh A4GNT (11735810_at) / RFU PRB3 (11715151_x_at) / Fold change /veh PRB3 (11715151_x_at) / RFU TUBB4B (11761932_at) / Fold change /veh TUBB4B (11761932_at) / RFU CAPN14 (11732068_a_at) / Fold change /veh CAPN14 (11732068_a_at) / RFU TMCC2 (11721928_a_at) / Fold change /veh TMCC2 (11721928_a_at) / RFU IRGQ (11745062_a_at) / Fold change /veh IRGQ (11745062_a_at) / RFU FAM174B (11720279_a_at) / Fold change /veh FAM174B (11720279_a_at) / RFU TMPRSS4 (11748680_a_at) / Fold change /veh TMPRSS4 (11748680_a_at) / RFU FAM212B (11763350_a_at) / Fold change /veh FAM212B (11763350_a_at) / RFU PLEKHG5 (11743358_a_at) / Fold change /veh PLEKHG5 (11743358_a_at) / RFU ZSCAN30 (11745921_a_at) / Fold change /veh ZSCAN30 (11745921_a_at) / RFU CMKLR1 (11741424_a_at) / Fold change /veh CMKLR1 (11741424_a_at) / RFU LOC101060620 /// MAPK8IP1 (11723275_at) / Fold change /veh LOC101060620 /// MAPK8IP1 (11723275_at) / RFU SPTSSB (11747773_x_at) / Fold change /veh SPTSSB (11747773_x_at) / RFU PRSS12 (11739890_at) / Fold change /veh PRSS12 (11739890_at) / RFU BIN1 (11741810_x_at) / Fold change /veh BIN1 (11741810_x_at) / RFU WNT11 (11732464_a_at) / Fold change /veh WNT11 (11732464_a_at) / RFU C10orf10 (11716521_a_at) / Fold change /veh C10orf10 (11716521_a_at) / RFU C5orf56 (11738089_at) / Fold change /veh C5orf56 (11738089_at) / RFU CYB561 (11721691_x_at) / Fold change /veh CYB561 (11721691_x_at) / RFU ANKRD19P (11752326_a_at) / Fold change /veh ANKRD19P (11752326_a_at) / RFU OR2T12 /// OR2T33 /// OR2T8 (11738714_s_at) / Fold change /veh OR2T12 /// OR2T33 /// OR2T8 (11738714_s_at) / RFU VCAN (11748164_a_at) / Fold change /veh VCAN (11748164_a_at) / RFU JSRP1 (11732532_at) / Fold change /veh JSRP1 (11732532_at) / RFU KRTAP10-11 (11738290_x_at) / Fold change /veh KRTAP10-11 (11738290_x_at) / RFU MYO3A (11730013_a_at) / Fold change /veh MYO3A (11730013_a_at) / RFU EBF3 (11725865_a_at) / Fold change /veh EBF3 (11725865_a_at) / RFU CAMK2N1 (11719241_x_at) / Fold change /veh CAMK2N1 (11719241_x_at) / RFU C5orf56 (11738088_a_at) / Fold change /veh C5orf56 (11738088_a_at) / RFU OLFML3 (11715873_a_at) / Fold change /veh OLFML3 (11715873_a_at) / RFU LOC100653217 /// NTM (11731650_a_at) / Fold change /veh LOC100653217 /// NTM (11731650_a_at) / RFU MAPK11 (11762145_a_at) / Fold change /veh MAPK11 (11762145_a_at) / RFU FIZ1 (11724087_x_at) / Fold change /veh FIZ1 (11724087_x_at) / RFU OASL (11726364_x_at) / Fold change /veh OASL (11726364_x_at) / RFU SOX15 (11748057_x_at) / Fold change /veh SOX15 (11748057_x_at) / RFU CD79A (11719716_a_at) / Fold change /veh CD79A (11719716_a_at) / RFU HIST1H1D (11736915_at) / Fold change /veh HIST1H1D (11736915_at) / RFU CASKIN2 (11723855_a_at) / Fold change /veh CASKIN2 (11723855_a_at) / RFU LOC730098 (11760151_x_at) / Fold change /veh LOC730098 (11760151_x_at) / RFU OR4N2 (11742367_at) / Fold change /veh OR4N2 (11742367_at) / RFU PRRT2 (11749266_a_at) / Fold change /veh PRRT2 (11749266_a_at) / RFU SNX32 (11753110_a_at) / Fold change /veh SNX32 (11753110_a_at) / RFU CDHR5 (11726645_a_at) / Fold change /veh CDHR5 (11726645_a_at) / RFU RCAN1 (11760418_a_at) / Fold change /veh RCAN1 (11760418_a_at) / RFU FAM167A (11723789_a_at) / Fold change /veh FAM167A (11723789_a_at) / RFU FAM26E (11764081_at) / Fold change /veh FAM26E (11764081_at) / RFU ISYNA1 (11749810_s_at) / Fold change /veh ISYNA1 (11749810_s_at) / RFU ACY1 (11761880_at) / Fold change /veh ACY1 (11761880_at) / RFU 11764098_at / Fold change /veh 11764098_at / RFU SAMD14 (11745864_x_at) / Fold change /veh SAMD14 (11745864_x_at) / RFU NPB (11741838_a_at) / Fold change /veh NPB (11741838_a_at) / RFU TMPRSS6 (11731388_a_at) / Fold change /veh TMPRSS6 (11731388_a_at) / RFU KRTAP10-2 (11738614_at) / Fold change /veh KRTAP10-2 (11738614_at) / RFU ARHGAP8 /// PRR5-ARHGAP8 (11727945_x_at) / Fold change /veh ARHGAP8 /// PRR5-ARHGAP8 (11727945_x_at) / RFU KRTAP5-7 /// NADSYN1 (11734609_at) / Fold change /veh KRTAP5-7 /// NADSYN1 (11734609_at) / RFU RASL12 (11751679_a_at) / Fold change /veh RASL12 (11751679_a_at) / RFU CDKN2B (11736163_a_at) / Fold change /veh CDKN2B (11736163_a_at) / RFU PRF1 (11729649_at) / Fold change /veh PRF1 (11729649_at) / RFU, ZNF638 /// ZNF638-IT1 / Fold change vs veh, ZNF638 /// ZNF638-IT1 / RFU, PANK3 / Fold change vs veh, PANK3 / RFU, SH3YL1 / Fold change vs veh, SH3YL1 / RFU, ZEB2 / Fold change vs veh, ZEB2 / RFU, NRIP1 / Fold change vs veh, NRIP1 / RFU, PTTG1IP / Fold change vs veh, PTTG1IP / RFU, CAPN2 / Fold change vs veh, CAPN2 / RFU, MED14 / Fold change vs veh, MED14 / RFU, SNORA58 / Fold change vs veh, SNORA58 / RFU, C1orf63 / Fold change vs veh, C1orf63 / RFU, LRRFIP1 / Fold change vs veh, LRRFIP1 / RFU, NDUFAF7 / Fold change vs veh, NDUFAF7 / RFU, SLC12A2 / Fold change vs veh, SLC12A2 / RFU, IBTK / Fold change vs veh, IBTK / RFU, ESF1 / Fold change vs veh, ESF1 / Fold change vs veh, TMEM50B / RFU, TAOK1 / Fold change vs veh, TAOK1 / RFU, ACBD3 / Fold change vs veh, ACBD3 / RFU, TMA16 / Fold change vs veh, TMA16 / RFU, RWDD3 / Fold change vs veh, RWDD3 / RFU, BCAT1 / Fold change vs veh, BCAT1 / RFU, EDEM3 / Fold change vs veh, EDEM3 / RFU, TMEM33 / Fold change vs veh, TMEM33 / RFU, WDR75 / Fold change vs veh, WDR75 / RFU, AHCTF1 / Fold change vs veh, AHCTF1 / RFU, TFRC / Fold change vs veh, TFRC / RFU, ZDHHC17 / Fold change vs veh, ZDHHC17 / RFU, NOM1 / Fold change vs veh, NOM1 / RFU, ARL8B / Fold change vs veh, ARL8B / RFU, ZBTB11 / Fold change vs veh, ZBTB11 / RFU, TAMM41 / Fold change vs veh, TAMM41 / RFU, KIAA1704 /// LOC100996395 / Fold change vs veh, KIAA1704 /// LOC100996395 / RFU, ING1 / Fold change vs veh, ING1 / RFU, TRMT61B / Fold change vs veh, TRMT61B / RFU, FUBP3 / Fold change vs veh, FUBP3 / RFU, TP53 / Fold change vs veh, TP53 / RFU, TNKS2 / Fold change vs veh, TNKS2 / RFU, ZFP14 / Fold change vs veh, ZFP14 / RFU, ACTR2 / Fold change vs veh, ACTR2 / RFU, PPP3R1 / Fold change vs veh, PPP3R1 / RFU, PIK3R1 / Fold change vs veh, PIK3R1 / RFU, HNRNPA1 / Fold change vs veh, HNRNPA1 / RFU, RNF170 / Fold change vs veh, RNF170 / RFU, ZNF28 / Fold change vs veh, ZNF28 / RFU, RNGTT / Fold change vs veh, RNGTT / RFU, OGT / Fold change vs veh, OGT / RFU, BRD1 / Fold change vs veh, BRD1 / RFU, MARS / Fold change vs veh, MARS / RFU, ZNF655 / Fold change vs veh, ZNF655 / RFU, FAHD1 / Fold change vs veh, FAHD1 / RFU, BDP1 / Fold change vs veh, BDP1 / RFU, LRRCC1 / Fold change vs veh, LRRCC1 / RFU, ARID1A / Fold change vs veh, ARID1A / RFU, ZNF146 / Fold change vs veh, ZNF146 / RFU, ZNF330 / Fold change vs veh, ZNF330 / RFU, GPN3 / Fold change vs veh, GPN3 / RFU, C9orf123 / Fold change vs veh, C9orf123 / RFU, N4BP2L2 / Fold change vs veh, N4BP2L2 / RFU, ARFIP1 / Fold change vs veh, ARFIP1 / RFU, FAM179B / Fold change vs veh, FAM179B / RFU, BCL10 / Fold change vs veh, BCL10 / RFU, UHRF1BP1L / Fold change vs veh, UHRF1BP1L / RFU, BET1 / Fold change vs veh, BET1 / RFU, CNOT2 / Fold change vs veh, CNOT2 / RFU, ZNF268 / Fold change vs veh, ZNF268 / Fold change vs veh, ZNF507 / RFU, DGCR2 / Fold change vs veh, DGCR2 / RFU, WDSUB1 / Fold change vs veh, WDSUB1 / Fold change vs veh, HSP90B1 /// MIR3652 / RFU, ADSS / Fold change vs veh, ADSS / RFU, GK / Fold change vs veh, GK / RFU, ZNF148 / Fold change vs veh, ZNF148 / RFU, TAF9 / Fold change vs veh, TAF9 / RFU, SLC1A5 / Fold change vs veh, SLC1A5 / RFU, SLMO2 / Fold change vs veh, SLMO2 / RFU, ABCC4 / Fold change vs veh, ABCC4 / RFU, LOC101060439 /// RAP1B / Fold change vs veh, LOC101060439 /// RAP1B / RFU, RFX7 / Fold change vs veh, RFX7 / RFU, GTPBP10 / Fold change vs veh, GTPBP10 / RFU, CNEP1R1 / Fold change vs veh, CNEP1R1 / RFU, BIVM-ERCC5 /// ERCC5 / Fold change vs veh, BIVM-ERCC5 /// ERCC5 / RFU, ILF3 / Fold change vs veh, ILF3 / RFU 11762660_at / Fold change /veh 11762660_at / RFU VCAN (11757783_s_at) / Fold change /veh VCAN (11757783_s_at) / RFU DDX43 (11728927_at) / Fold change /veh DDX43 (11728927_at) / RFU KRT8 (11758188_x_at) / Fold change /veh KRT8 (11758188_x_at) / RFU NKD1 (11759106_at) / Fold change /veh NKD1 (11759106_at) / RFU SRD5A1 (11742802_a_at) / Fold change /veh SRD5A1 (11742802_a_at) / RFU TPSAB1 /// TPSB2 (11721975_s_at) / Fold change /veh TPSAB1 /// TPSB2 (11721975_s_at) / RFU GSTM3 (11746129_a_at) / Fold change /veh GSTM3 (11746129_a_at) / RFU IL23R (11737362_x_at) / Fold change /veh IL23R (11737362_x_at) / RFU TMEM51 (11727254_a_at) / Fold change /veh TMEM51 (11727254_a_at) / RFU PIWIL2 (11732686_x_at) / Fold change /veh PIWIL2 (11732686_x_at) / RFU ORM1 (11744905_x_at) / Fold change /veh ORM1 (11744905_x_at) / RFU CCDC152 (11743942_at) / Fold change /veh CCDC152 (11743942_at) / RFU ECM1 (11717891_a_at) / Fold change /veh ECM1 (11717891_a_at) / RFU IL23R (11748794_a_at) / Fold change /veh IL23R (11748794_a_at) / RFU TNFAIP8L3 (11732012_x_at) / Fold change /veh TNFAIP8L3 (11732012_x_at) / RFU MBOAT4 (11741988_at) / Fold change /veh MBOAT4 (11741988_at) / RFU 11764193_at / Fold change /veh 11764193_at / RFU TMEM53 (11763286_at) / Fold change /veh TMEM53 (11763286_at) / RFU MAGEB2 (11727129_at) / Fold change /veh MAGEB2 (11727129_at) / RFU TMEM200A (11744735_a_at) / Fold change /veh TMEM200A (11744735_a_at) / RFU CCDC152 (11751479_a_at) / Fold change /veh CCDC152 (11751479_a_at) / RFU FAM211A (11726209_a_at) / Fold change /veh FAM211A (11726209_a_at) / RFU RGS16 (11746705_a_at) / Fold change /veh RGS16 (11746705_a_at) / RFU VCAN (11755009_s_at) / Fold change /veh VCAN (11755009_s_at) / RFU RHOB (11743442_s_at) / Fold change /veh RHOB (11743442_s_at) / RFU RGS16 (11720943_a_at) / Fold change /veh RGS16 (11720943_a_at) / RFU RGS16 (11720944_at) / Fold change /veh RGS16 (11720944_at) / RFU, VPS4B / Fold change vs veh, VPS4B / RFU, CREB1 / Fold change vs veh, CREB1 / RFU, DNAJC13 / Fold change vs veh, DNAJC13 / RFU, GNAQ / Fold change vs veh, GNAQ / RFU, CDK5R1 / Fold change vs veh, CDK5R1 / RFU, ZRANB3 / Fold change vs veh, ZRANB3 / RFU, CUL4A / Fold change vs veh, CUL4A / RFU, CCNY / Fold change vs veh, CCNY / RFU, UFL1 / Fold change vs veh, UFL1 / RFU, COG3 / Fold change vs veh, COG3 / RFU, DIAPH2 / Fold change vs veh, DIAPH2 / RFU, SKA2 / Fold change vs veh, SKA2 / RFU, AFF3 / Fold change vs veh, AFF3 / RFU, LMF1 / Fold change vs veh, LMF1 / RFU, IPO11 / Fold change vs veh, IPO11 / RFU, DFFB / Fold change vs veh, DFFB / RFU, FOXP1 / Fold change vs veh, FOXP1 / RFU, CARD8 / Fold change vs veh, CARD8 / RFU, STRN3 / Fold change vs veh, STRN3 / RFU, ADK / Fold change vs veh, ADK / RFU, RASSF2 / Fold change vs veh, RASSF2 / RFU, WIPF1 / Fold change vs veh, WIPF1 / RFU, LARP1B / Fold change vs veh, LARP1B / RFU, RASA1 / Fold change vs veh, RASA1 / RFU, RB1 / Fold change vs veh, RB1 / RFU, PPFIA1 / Fold change vs veh, PPFIA1 / RFU, MAT2A / Fold change vs veh, MAT2A / RFU, CCT5 / Fold change vs veh, CCT5 / RFU, WDR92 / Fold change vs veh, WDR92 / RFU, CUX1 / Fold change vs veh, CUX1 / RFU, TTC7A / Fold change vs veh, TTC7A / RFU, TMEM135 / Fold change vs veh, TMEM135 / RFU, DEPTOR / Fold change vs veh, DEPTOR / RFU, CPM / Fold change vs veh, CPM / RFU, DNAJB6 / Fold change vs veh, DNAJB6 / RFU, CACNA2D3 / Fold change vs veh, CACNA2D3 / RFU, DTX4 / Fold change vs veh, DTX4 / RFU, TFCP2 / Fold change vs veh, TFCP2 / RFU, GMCL1 /// GMCL1P1 / Fold change vs veh, GMCL1 /// GMCL1P1 / RFU, AEBP2 / Fold change vs veh, AEBP2 / RFU, SNHG1 /// SNORD22 /// SNORD25 /// SNORD26 /// SNORD27 /// SNORD28 /// SNORD29 /// SNORD31 / Fold change vs veh, SNHG1 /// SNORD22 /// SNORD25 /// SNORD26 /// SNORD27 /// SNORD28 /// SNORD29 /// SNORD31 / Fold change (Aza/veh), C12orf56 (ProbeSet 11735607_a_at) / Fold change (ACY-1035/veh), C12orf56 (ProbeSet 11735607_a_at) / Fold change (Aza/veh), FGFR1OP (ProbeSet 11751329_s_at) / Fold change (ACY-1035/veh), FGFR1OP (ProbeSet 11751329_s_at) / Fold change (Aza/veh), VPS36 (ProbeSet 11739960_a_at) / Fold change (ACY-1035/veh), VPS36 (ProbeSet 11739960_a_at) / RFU SYPL1 (11715823_x_at) / Fold change /veh SYPL1 (11715823_x_at) / RFU IGFBP7 (11715501_s_at) / Fold change /veh IGFBP7 (11715501_s_at) / RFU REEP3 (11722064_at) / Fold change /veh REEP3 (11722064_at) / RFU IGLL1 (11728026_x_at) / Fold change /veh IGLL1 (11728026_x_at): dose or concentration left out as unconfirmed",
  "conditions": "MV-4-11 cells, 48 hours",
  "data": [
    {"smiles": "Nc1ncn([C@@H]2O[C@H](CO)[C@@H](O)[C@H]2O)c(=O)n1", "note": "[azacitidine]", "values": [
      {"measurement": "Fold change /veh TMEM53 (11763286_at)", "value": 1.48}
    ]}
  ]
}
